Values of other authors, collected in US20240115678A1, “PERSONALIZED […] CANCER THERAPY” (priority 2022, published 2024).

What was measured:
[1] = tested on: monocytes derived from human peripheral blood
[2] = tested on: murine TECs and normal ECs; conditions: with up-regulation of MDR1 mRNA
[3] = tested on: neuroblastoma, bladder cancer, pancreatic cancer, mesothelioma, hepatoma cells; conditions: in vitro
vascular cord formation = conditions: in vivo administration
[4] = tested on: hypoxia inducible factor (HIF)-1
HUVEC = conditions: in vitro
[5] = tested on: rat PAIII androgen-independent syngeneic prostate cancer cell line; conditions: daily intraperitoneal for 30 days, evaluation at day 40
S-180 sarcoma = conditions: parenteral administration
[6] = tested on: T cell, B cell and NK cells; conditions: high dose
[7] = tested on: battery of tumor cell lines; conditions: in vitro, combined with AA
[8] = tested on: human xenografted glioma, overian, and neuroblastoma cells; conditions: immune deficient animals
NK cells = conditions: animal experiments
ovarian cancer = conditions: whole trial

Molecule: CCOCc1nc2c(N)nc3ccccc3c2n1CC(C)(C)O [R-848]
- FcgammaRI, FcgammaRIIa, and the common gamma-subunit [1]: upregulation
- inhibitory FcgammaRIIb molecule [1]: profound downregulation
- FcgammaR-mediated cytokine production ([1]; 12 hour exposure): increased
- antibody-dependent cellular cytotoxicity by monocytes ([1]; 12 hour exposure): increased

Molecule: CC(C)[C@]12O[C@H]1[C@@H]1O[C@]13[C@]1(O[C@H]1C[C@H]1C4=C(CC[C@@]13C)C(=O)OC4)[C@@H]2O [triptolide]
- effect on Treg cells (Treg cells): inhibit Treg cells

Molecule: CC(=O)O[C@H]1C(=O)[C@@]2(C)[C@H]([C@H](OC(=O)c3ccccc3)[C@]3(O)C[C@H](OC(=O)[C@H](O)[C@@H](NC(=O)c4ccccc4)c4ccccc4)C(C)=C1C3(C)C)[C@]1(OC(C)=O)CO[C@@H]1C[C@@H]2O [paclitaxel]
- resistance of TECs compared with normal ECs [2]: more resistant

Molecule: O=C1O[C@H]([C@@H](O)CO)C(O)=C1O [AA, ascorbic acid]
- cytotoxic effects on cancer cells [3]: cytotoxic effects at pharmacologically achievable concentrations
- T cell activating ability of dendritic cells (dendritic cells): inhibit
- vascular cord formation (vascular cord formation): suppressed vascular cord formation
- activation of HIF-1 [4]: suppresses activation
- HUVEC proliferation (HUVEC): inhibits
- pulmonary and lymphatic metastasis [5]: reduction in pulmonary and lymphatic metastasis
- tumor growth [5]: significant inhibition of tumor growth
- neovascularization (neovascularization): suppressing neovascularization
- angiogenesis and pro-angiogenic factors bFGF, VEGF, and MMP-2 (S-180 sarcoma): suppression
- tumor growth (S-180 sarcoma): reduced tumor growth
- NK cytotoxic activity [6]: inhibits
- IL-2 secretion ([6]; in vitro): inhibits
- T cell and B cell proliferative responses ([6]; in vitro): inhibits
- cytotoxicity of Docetaxel, Epirubicin, Irinotecan and 5-FU [7]: Enhancement of cytotoxicity
- inhibition of xenografted cells [8]: successful in vivo inhibition

Molecule: Poly (IC)
- effect on Herceptin activity (NK cells): augmentation of Herceptin activity

Molecule: Nc1ccn([C@@H]2O[C@H](CO)[C@@H](O)C2(F)F)c(=O)n1 [gemcitabine]
- effect on Treg cells (Treg cells): inhibit Treg cells

Molecule: O=P1(N(CCCl)CCCl)NCCCO1 (stereo not drawn) [cyclophosphamide]
- effect on Treg cells (Treg cells): inhibit Treg cells

Molecule: bevacizumab plus chemotherapy: Bevacizumab (Avastin), antibody which binds VEGF, given with chemotherapy
- median progression free survival (PFS) (ovarian cancer; ovarian cancer patients): 6.8 months
- median OS (ovarian cancer): 16.6 months
- HR for overall survival (ovarian cancer; versus chemotherapy alone, 95 percent CI: 0.69, 1.14): 0.89

Molecule: arsenic trioxide
- effect on Treg cells (Treg cells): inhibit Treg cells

Molecule: COc1cc2nccc(Oc3ccc(NC(=O)Nc4ccc(F)cc4F)c(F)c3)c2cc1OC [Ki8751]
- tumor CM-induced MDR1 up-regulation (human microvascular ECs): blocked

B1: IL-12: stimulator of NK cells (protein, UniProt P29459 23-219; P29460 23-328, looked up)
Interleukin-12 subunit alpha: RNLPVATPDPGMFPCLHHSQNLLRAVSNMLQKARQTLEFYPCTSEEIDHEDITKDKTSTVEACLPLELTKNESCLNSRETSFITNGSCLASRKTSFMMALCLSSIYEDLKMYQVEFKTMNAKLLMDPKRQIFLDQNMLAVIDELMQALNFNSETVPQKSSLEEPDFYKTKIKLCILLHAFRIRAVTIDRVMSYLNAS
Interleukin-12 subunit beta: IWELKKDVYVVELDWYPDAPGEMVVLTCDTPEEDGITWTLDQSSEVLGSGKTLTIQVKEFGDAGQYTCHKGGEVLSHSLLLLHKKEDGIWSTDILKDQKEPKNKTFLRCEAKNYSGRFTCWWLTTISTDLTFSVKSSRGSSDPQGVTCGAATLSAERVRGDNKEYEYSVECQEDSACPAAEESLPIEVMVDAVHKLKYENYTSSFFIRDIIKPDPPKNLQLKPLKNSRQVEVSWEYPDTWSTPHSYFSLTFCVQVQGKSKREKKDRVFTDKTSATVICRKNASISVRAQDRYYSSSWSEWASVPCS
- effect on Herceptin activity (NK cells): augmentation of Herceptin activity
